Data reported in the NIST ThermoML archive (doi:10.1021/je4003515).

Assays:
[1] = refractive index (Na D-line) (dimensionless); mn = molality of the nth substance listed, in mol/kg; details: 298.15 K, 101 kPa, Liquid, Standard Abbe refractometry
[2] = mn = molality of the nth substance listed, in mol/kg; details: 101 kPa, Liquid; for viscosity: Capillary tube (Ostwald / Ubbelohde) method; for mass density: Vibrating tube method

CCO [ethanol] + O
[1]
Details | refractive index
m1 = 14 | 1.355
m1 = 16 | 1.3564
m1 = 18 | 1.3575
m1 = 20 | 1.3583
m1 = 22 | 1.3585

[2]
Details | mass density, 293.15 K [kg/m3] | mass density, 298.15 K [kg/m3] | mass density, 303.15 K [kg/m3] | mass density, 308.15 K [kg/m3] | mass density, 313.15 K [kg/m3] | viscosity, 293.15 K [mPa·s] | viscosity, 298.15 K [mPa·s] | viscosity, 303.15 K [mPa·s] | viscosity, 308.15 K [mPa·s] | viscosity, 313.15 K [mPa·s]
m1 = 14 | 936.706 | 933.024 | 929.265 | 925.437 | 921.529 | 2.895 | 2.35 | 1.97 | 1.673 | 1.44
m1 = 16 | 930.583 | 926.799 | 922.942 | 919.015 | 915.018 | 2.9 | 2.363 | 1.988 | 1.69 | 1.456
m1 = 18 | 924.182 | 920.298 | 916.351 | 912.337 | 908.255 | 2.889 | 2.365 | 1.99 | 1.695 | 1.462
m1 = 20 | 918.792 | 914.849 | 910.842 | 906.77 | – | 2.878 | 2.371 | 1.999 | 1.704 | 1.475
m1 = 22 | 913.462 | 909.466 | 905.406 | 901.281 | – | 2.862 | 2.352 | 1.989 | 1.7 | 1.469

CCCO [propan-1-ol] + O
[1]
Details | refractive index
m1 = 14 | 1.364
m1 = 16 | 1.3654
m1 = 18 | 1.367
m1 = 20 | 1.368
m1 = 22 | 1.3695

[2]
Details | mass density, 293.15 K [kg/m3] | mass density, 298.15 K [kg/m3] | mass density, 303.15 K [kg/m3] | mass density, 308.15 K [kg/m3] | mass density, 313.15 K [kg/m3] | viscosity, 293.15 K [mPa·s] | viscosity, 298.15 K [mPa·s] | viscosity, 303.15 K [mPa·s] | viscosity, 308.15 K [mPa·s] | viscosity, 313.15 K [mPa·s]
m1 = 14 | 918.103 | 914.486 | 910.811 | 907.075 | 903.277 | 3.11 | 2.599 | 2.193 | 1.88 | 1.626
m1 = 16 | 911.211 | 907.532 | 903.797 | 899.995 | 896.13 | 3.151 | 2.637 | 2.23 | 1.906 | 1.648
m1 = 18 | 905.417 | 901.687 | 897.899 | 894.048 | 890.133 | 3.176 | 2.663 | 2.255 | 1.93 | 1.67
m1 = 20 | 899.512 | 895.724 | 891.885 | 887.984 | 884.02 | 3.178 | 2.671 | 2.263 | 1.938 | 1.679
m1 = 22 | 895.376 | 891.557 | 887.682 | 883.751 | 879.756 | – | – | – | – | –
